{"source": "patent US7521065B2", "about": "“Compositions for the treatment and prevention of cancer” (priority 2001, dated 2009)", "key": {"[1]": {"test_system": "skin lesion with all characteristics of a superficially spreading melanoma", "experiment": "Topical treatment of a skin lesion, case report Example I", "format": "in vivo, human", "conditions": "10% solution in n-decane, twice a day for 3 days, person, lesion 0.8 cm", "description": "A subject presented with a skin lesion of 0.8 cm diameter on their right upper chest."}, "[2]": {"description": "The therapeutic efficacy of the dialkyl diselenides of these compositions depends on (1) the length of the alkyl residue R, and (2) the composition of the inert carrier as these determine the degree to which they can penetrate through the skin. […] Increasing the average alkyl chain length beyond n-hexyl causes them to become less skin penetrating and more suitable for the treatment of superficial cancerous lesions. Shortening the chain length below n-hexyl increases the volatility of these compounds. This reduces their therapeutic efficacy as it causes them to evaporate when brought onto the skin.\nSelection of the appropriate alkyl residues R in these compounds is important as it determines their ability to penetrate the skin. Preferred are dialkyl diselenides with linear, medium-length straight alkyl residues of at least 6 and not exceeding 8 carbon atoms."}, "[3]": {"test_system": "metastatic cutaneous and subcutaneous lesions and affected lymph nodes (breast cancer)", "experiment": "Topical treatment of breast cancer metastases, case report Example VI", "format": "in vivo, human", "description": "In May 1998 a tumor was diagnosed in the left breast of a […] which had been treated for cancer of the right breast in 1974 by mastectomy, axillar resection, chemotherapy with cytoxan, metothrexate and 5-fluorouracil, and ovariectomy. In May 1999 they presented with numerous skin metastases on their upper torso and lymph node involvement. The patient underwent various therapies in Europe, which included chemotherapy, immunotherapy and hyperthermia, but numerous metastatic cutaneous and subcutaneous metastatic lesions remained on their chest, in the mastectomy scar, in the left axilla and on their back. […] As a precaution they are applying a lotion containing 0.2% solution of di-n-hexyl diselenide in jojoba oil onto areas of their skin once every two weeks."}, "small lump on breast": {"test_system": "small lump on breast", "experiment": "Cream applied onto breasts, case report Example V", "format": "in vivo, human", "conditions": "0.2% in moisturizing cream, once a week; person", "description": "A person with a small lump on their breast was told that they were at risk of developing breast cancer. They applied onto their breasts once a week a cream containing 0.2% di-n-hexyl diselenide in a moisturizing cream of conventional composition. […] They presently continue to apply the selenium composition once a week as a precautionary measure."}, "[4]": {"test_system": "inoperable cancer of the rectum", "experiment": "Suppository treatment of rectal cancer, case report Example VIII", "format": "in vivo, human", "conditions": "suppositories containing 2% in cocoa butter, daily for 4 weeks", "description": "A person was diagnosed with inoperable cancer of the rectum in 1998 and was offered radiation therapy, which they refused. A colostomy was performed in the fall of 1998. They applied suppositories containing 2% di-n-hexyl diselenide in cocoa butter daily into their rectum for a period of 4 weeks."}, "[5]": {"test_system": "irregular melanotic spot on right hand", "experiment": "Topical treatment of a melanotic spot, case report Example II", "format": "in vivo, human", "conditions": "10% solution in 1:1 n-decane/n-dodecane, once every day for one week, person", "description": "A subject presented with a small irregular melanotic spot of approximately 3 mm diameter on their right hand which the subject had since birth but which in recent years had increased in size and became unsymmetrical. […] New skin growing over the lesion closed it without a scar."}, "[6]": {"test_system": "high nuclear grade intraductal carcinoma of the right breast", "experiment": "Topical treatment of breast carcinoma, case report Example VII", "format": "in vivo, human", "description": "A person was diagnosed in July 1999 with a high nuclear grade intraductal carcinoma of the right breast. The tumor consisted of a hard mass in the lower left quadrant of the right breast of 3 cm diameter. In November 1999, a 6% di n-hexyl diselenide in a 1:1 mixture of n-decane and jojoba oil was applied onto the affected breast once per day. […] Status Jan. […] Status April 2001: Unchanged."}, "[7]": {"test_system": "squamous carcinoma on nose", "experiment": "Topical cream treatment of squamous carcinoma, case report Example III", "format": "in vivo, human", "conditions": "cream containing 6%, twice per day for 5 days; person"}, "[8]": {"test_system": "several human cancer cell lines", "conditions": "cell cultures; cited from earlier work"}, "[9]": {"test_system": "lesion diagnosed as precancerous", "experiment": "Impregnated adhesive bandage on precancerous lesion, case report Example IV", "format": "in vivo, human", "conditions": "adhesive bandage impregnated with compound; person", "description": "A person developed a lesion diagnosed as precancerous on the upper part of their back."}, "[10]": {"test_system": "normal embryonic liver or lung cells", "conditions": "added to the growth media; cited from earlier work"}}, "data": [{"compound": "CCCCCC[Se][Se]CCCCCC", "note": "[di-n-hexyl diselenide]", "values": [{"measurement": "outcome of skin lesion", "setting": "[1]", "result": "caused a layer of dead cells to be formed which dropped off after 4 days without leaving a scar"}, {"measurement": "skin penetration properties", "setting": "[2]", "result": "excellent skin penetration properties"}, {"measurement": "outcome of metastatic lesions and affected lymph nodes", "setting": "[3]; 5% in n-decane", "result": "caused their disappearance within two weeks"}, {"measurement": "follow-up after treatment", "setting": "[3]; after 5% in n-decane", "result": "remained free of cancer for two years"}, {"measurement": "outcome of breast lump", "setting": "small lump on breast", "result": "lump in their breast disappeared over a period of two months"}, {"measurement": "patient status during the following 2 years", "setting": "[4]", "result": "their status has remained stable, they gained weight, and was able to work"}, {"measurement": "tumor mass by X-ray and sonographic examinations", "setting": "[4]", "result": "the tumor mass had ceased to grow"}, {"measurement": "outcome of melanotic spot", "setting": "[5]", "result": "caused the affected skin to turn brittle and to fall off"}, {"measurement": "outcome of breast mass", "setting": "[6]; 6% in 1:1 n-decane/jojoba oil, once per day, breast mass 3 cm diameter", "result": "Over a period of 4 weeks the breast mass shrunk and ultimately disappeared"}, {"measurement": "status by ultrasonic examination", "setting": "[6]; Status Jan. 8, 2000, unchanged April 2001", "result": "No breast mass detectable"}]}, {"compound": "CCCCCCC[Se][Se]CCCCCCC", "note": "[di-n-heptyl diselenide]", "values": [{"measurement": "outcome of squamous carcinoma lesion", "setting": "[7]", "result": "disappearance of the lesion"}, {"measurement": "growth of cancer cell lines", "setting": "[8]", "result": "inhibit the growth"}]}, {"compound": "CCCCCCCC[Se][Se]CCCCCCCC", "note": "[di-n-octyl diselenide]", "values": [{"measurement": "outcome of precancerous lesion", "setting": "[9]", "result": "caused the lesion to dry out and drop off without a scar within 3 weeks"}]}, {"compound": "CCCCCC[SeH]", "note": "[n-hexyl selenol]", "values": [{"measurement": "outcome of recurrences on chest and metastases on back", "setting": "[3]; 10% solution in n-decane", "result": "effectively controlled"}, {"measurement": "follow-up after treatment of recurrences", "setting": "[3]; after 10% solution in n-decane", "result": "remained free of obvious signs of cancer for one year"}]}, {"compound": "O=[Se](O)O", "note": "[sodium selenite]", "values": [{"measurement": "effect on normal cells", "setting": "[10]", "result": "without affecting"}]}]}
